Here are results for 37 compounds from patent publication US20180282323A1, “Mesoionic imidazole derivatives as insecticides” (BAYER CROPSCIENCE AKTIENGESELLSCHAFT, priority 2015, published 2018).

Read-outs that look alike come from different tables or passages of the source.

For data set [1], the system named is Myzus persicae. Nature of the data set: Myzus persicae oral test. It is filed as in vivo. The following applies: application rate 20 ppm, oral uptake through parafilm, after 5 days; for pest or weed control at 20 ppm: Myzus persicae, 120 h, read-out: efficacy. The essentials:
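Compound dissolved in acetone, diluted with water, then mixed into IPL41 insect medium with sugar in microtitre plates under parafilm. Mixed-population green peach aphids fed through the membrane; % mortality scored after 5 days (100% = all killed).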

Data set [2] in a line: log P by HPLC on reversed-phase column (EEC directive 79/831 Annex V.A8). The following applies: for log p: HPLC on reversed-phase column (footnote a); for log p a): HPLC on reversed-phase column. In kind it is physicochemical. The method, boiled down: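 Determined per EEC directive 79/831 Annex V.A8 by HPLC on a reversed-phase C18 column at 43° C.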
Data set [3] relates to Myzus persicae. Kind of data set: Myzus persicae spray test (Chinese cabbage leaf discs). It is filed as in vivo. The following applies: application rate 500 g/ha, after 6 days. How it is done: Myzus persicae—Spray Test Solvent: 78 parts by weight of acetone • • 1.5 parts by weight of dimethylformamide Emulsifier: alkylaryl polyglycol ether
To produce a suitable active ingredient formulation, 1 part by weight of active ingredient is dissolved with the stated parts by weight of solvent and made up with water containing an emulsifier concentration of 1000 ppm until the desired concentration is attained. To produce further test concentrations, the formulation is diluted with emulsifier-containing water.
Discs of Chinese cabbage leaves (Brassica pekinensis) infested by all stages of the green peach aphid (Myzus persicae) are sprayed with an active ingredient formulation of the desired concentration.
After 6 days, the efficacy in % is determined. 100% means that all the aphids have been killed; 0% means that no aphids have been killed.

Broadly, the chromatographic logP is a lipophilicity value derived from retention on a column.

With `CSCC(=O)c1c([O-])n(Cc2ccc(Cl)nc2)c2cccc[n+]12` [Example I-1-005], the efficacy in data set [1] is on record as 100%; in data set [3] it was 90%. In data set [2], this compound yielded a log p of 1.62.

For the compound `O=C(Cn1cc(Cl)cn1)c1c([O-])n(Cc2cnc(Cl)s2)c2cccc[n+]12` [Example I-1-010], the efficacy in data set [1] was determined as 100%; in data set [3], 90%. The compound also had a log p in data set [2] of 2.09.

Regarding `N#Cc1cnn(CC(=O)c2c([O-])n(Cc3cnc(Cl)s3)c3cccc[n+]23)c1` [Example I-1-015], the efficacy in data set [1] is reported as 100%; in data set [3], 90%. This compound came in with a log p in data set [2] of 1.68.

For `C[S+]([O-])CC(=O)c1c([O-])n(Cc2ccc(Cl)nc2)c2cccc[n+]12` (stereo not shown) [Example I-1-022], the efficacy in data set [1] and in data set [3] was 100% in each case. Also, in data set [2], the log p turned out to be 0.91.

Regarding `COCC(=O)c1c([O-])n(Cc2cncnc2)c2cccc[n+]12` [Example I-1-023], the efficacy in data set [1] and in data set [3] was 100% each time. For the same compound, in data set [2], the log p is reported as 0.4.

With `CC(C)OCC(=O)c1c([O-])n(Cc2cnc(Cl)s2)c2cccc[n+]12` [Example I-1-026, 1-[(2-chloro-1,3-thiazol-5-yl)methyl]-3-(isopropoxyacetyl)-1H-imidazo[1,2-a]pyridin-4-ium-2-olate], the pest or weed control at 20 ppm in data set [1] turned out to be 100%. Also, the chromatographic logP in data set [2] turned out to be 1.73; in data set [2] (pH 2.7), 1.8. In data set [3], this compound gave an efficacy of 100%.

As to `CC(=O)c1c([O-])n(Cc2cnc(Cl)s2)c2cccc[n+]12` [Example I-1-043, 3-Acetyl-1-[(2-chloro-1,3-thiazol-5-yl)methyl]-1H-imidazo[1,2-a]pyridin-4-ium-2-olate], the pest or weed control at 20 ppm in data set [1] came to 100%. In addition, the chromatographic logP in data set [2] and in data set [2] (pH 2.7) was 1.29 in each case. In data set [3], this compound returned an efficacy of 100%.

With `CC(=O)Nc1ccn(CC(=O)c2c([O-])n(Cc3cnc(Cl)s3)c3cccc[n+]23)n1` [Example I-1-056], the efficacy in data set [1] and in data set [3] was 90% each time. This compound showed a log p in data set [2] of 1.21.

On to `CCCOCC(=O)c1c([O-])n(Cc2cncnc2)c2cccc[n+]12` [Example I-1-061], for which the efficacy in data set [1] and in data set [3] was 100% throughout. The same compound returned a log p in data set [2] of 1.08.

For the compound `O=C(Cn1nccn1)c1c([O-])n(Cc2cnc(Cl)s2)c2cccc[n+]12` [Example I-1-068], the efficacy in data set [1] and in data set [3] was 100% each time. This compound also showed a log p in data set [2] of 1.41.

`CCC(=O)N(CC)CC(=O)c1c([O-])n(Cc2ccc(Cl)nc2)c2cccc[n+]12` [Example I-1-070]: the efficacy in data set [1] and in data set [3] was 100% each time. In data set [2], this compound returned a log p of 1.64.

Consider `CCOCC(=O)c1c([O-])n(Cc2cncnc2)c2cccc[n+]12` [Example I-1-072], for which the efficacy in data set [1] and in data set [3] was 100% throughout. Moreover, the log p in data set [2] is listed as 0.59.

Turning to `CC(=O)N(C)CC(=O)c1c([O-])n(Cc2cnc(Cl)s2)c2cccc[n+]12` [Example I-1-076], the efficacy in data set [1] and in data set [3] was 100% in each case. In addition, the log p in data set [2] stood at 1.18.

For the compound `Cc1cccc2n(Cc3cnc(Cl)s3)c([O-])c(C(=O)CCl)[n+]12` [Example I-1-080], the log p in data set [2] is reported as 1.81. This compound gave an efficacy in data set [3] of 100%.

With `Cc1ccc[n+]2c(C(=O)CCl)c([O-])n(Cc3cnc(Cl)s3)c12` [Example I-1-081], the efficacy in data set [1] and in data set [3] was 100% throughout. Further, the log p in data set [2] is given as 1.98.

Turning to `COC(=O)c1c([O-])n(Cc2cnc(Cl)s2)c2cccc[n+]12` [Example I-1-085, 1-[(2-Chloro-1,3-thiazol-5-yl)methyl]-3-(methoxycarbonyl)-1H-imidazo[1,2-a]pyridin-4-ium-2-olate], the chromatographic logP in data set [2] and in data set [2] (pH 2.7) was 1.23 each time. In addition, the efficacy in data set [3] is listed as 90%.

Take `Cn1nccc1OCC(=O)c1c([O-])n(Cc2cnc(Cl)s2)c2cccc[n+]12` [Example I-1-086]: the efficacy in data set [1] and in data set [3] was 100% each time. Moreover, in data set [2], the log p turned out to be 1.53.

Turning to `Cc1ccn(CC(=O)c2c([O-])n(Cc3cnc(Cl)s3)c3c(C)ccc[n+]23)n1` [Example I-1-092], the efficacy in data set [1] was 100%; in data set [3], 90%. Moreover, in data set [2], the log p is 1.84.

As for `COC(=O)c1c([O-])n(Cc2ccc(Cl)nc2)c2cccc[n+]12` [Example I-1-101], the efficacy came out at 100% in data set [1] and 90% in data set [3]. In data set [2], this compound gave a log p of 1.18.

`O=C(Cn1cccn1)c1c([O-])n(Cc2ccc(Cl)nc2)c2ccc(F)c[n+]12` [Example I-1-106]: the efficacy in data set [1] and in data set [3] was 90% throughout. This compound returned a log p in data set [2] of 1.53.

In the case of `COC(=O)c1c([O-])n(Cc2cncnc2)c2cccc[n+]12` [Example I-1-107], the results for the efficacy in data set [1] and in data set [3] were 100% and 90%, respectively. This compound gave a log p in data set [2] of 0.42.

With `CCOCC(=O)c1c([O-])n(Cc2cnc(Cl)s2)c2ccc(F)c[n+]12` [Example I-1-112], the results for the efficacy in data set [1] and in data set [3] were 100% and 90%, respectively. Further, the log p in data set [2] is listed as 1.58.

Take `COC(=O)c1c([O-])n(Cc2cnc(Cl)s2)c2cccc(C)[n+]12` [Example I-1-122]: the efficacy amounted to 100% in data set [1] and 90% in data set [3]. In data set [2], this compound had a log p of 1.32.

Consider `COCC(=O)c1c([O-])n(C(C)c2ccc(Cl)nc2)c2cccc[n+]12` (stereo not shown) [Example I-1-178], for which the efficacy in data set [1] amounted to 100%; in data set [3] it was 90%. The log p in data set [2] was found to be 1.35.

Take `Cc1ccc[n+]2c(C(=O)NC(C)c3ccc(Cl)cc3)c([O-])n(Cc3cnc(Cl)s3)c12` (stereo not shown) [Example I-1-210]: the efficacy in data set [1] and in data set [3] was 100% in each case. In addition, the “log p a)” value in data set [2] was found to be 3.46.

On to `Cc1ccc[n+]2c(C(=O)Nc3ncccc3F)c([O-])n(Cc3cnc(Cl)s3)c12` [Example I-1-274], for which the figures for the efficacy in data set [1] and in data set [3] were 100% and 90%, respectively. Also, the “log p a)” value in data set [2] is recorded as 1.78.

Take `CCCNC(=O)c1c([O-])n(Cc2cnc(Cl)cn2)c2cccc[n+]12` [Example I-1-279]: the efficacy in data set [1] stood at 100%; in data set [3] it was 90%. Moreover, the “log p a)” value in data set [2] was found to be 1.81.

In the case of `CCC(CC)OCC(=O)c1c([O-])n(Cc2cnc(Cl)s2)c2c(C)ccc[n+]12` [Example I-1-293], the efficacy in data set [1] and in data set [3] was 100% each time. Further, in data set [2], the “log p a)” value was 2.76.

`Cc1ccc[n+]2c(C(=O)COC(C)(C)C)c([O-])n(Cc3cnc(Cl)s3)c12` [Example I-1-296]: the efficacy in data set [1] is recorded as 100%; in data set [3] it was 90%. Also, the “log p a)” value in data set [2] stood at 2.12.

As for `Cc1ccc[n+]2c(C(=O)COCC(F)(F)F)c([O-])n(Cc3cnc(Cl)s3)c12` [Example I-1-297], the efficacy in data set [1] was 100%; in data set [3] it was 90%. The “log p a)” value in data set [2] was found to be 2.34.

As to `O=C(Nc1ncccc1Cl)c1c([O-])n(Cc2cnc(Cl)s2)c2cccc[n+]12` [Example I-1-301], the efficacy in data set [1] and in data set [3] was 100% each time. For the same compound, in data set [2], the “log p a)” value is reported as 1.63.

`C#Cc1cccnc1NC(=O)c1c([O-])n(Cc2cnc(Cl)s2)c2cccc[n+]12` [Example I-1-303]: in data set [2], the “log p a)” value is 1.3. Also, the efficacy in data set [3] is on record as 90%.

Take `Cc1cccc(Cl)c1NC(=O)c1c([O-])n(Cc2cnc(Cl)s2)c2cccc[n+]12` [Example I-1-304]: the efficacy in data set [1] and in data set [3] was 100% in each case. In data set [2], the “log p a)” value was 2.8.

With `N#Cc1cccc(F)c1NC(=O)c1c([O-])n(Cc2cnc(Cl)s2)c2cccc[n+]12` [Example I-1-307], in data set [2], the “log p a)” value stood at 2.2. Besides, the efficacy in data set [3] worked out at 90%.

Regarding `COC(=O)c1c([O-])n(Cc2ccc(Cl)nc2)c2nccc[n+]12` [Example I-4-001, 1-[(6-Chloropyridin-3-yl)methyl]-3-(methoxycarbonyl)-1H-imidazo[1,2-a]pyrimidin-4-ium-2-olate], the pest or weed control at 20 ppm in data set [1] came out at 100%. The chromatographic logP in data set [2] and in data set [2] (pH 2.7) was 1.15 in each case.

For `O=C(CCl)c1c([O-])n(Cc2ccc(Cl)nc2)c2scc[n+]12` [Example I-5-001, 5-(Chloroacetyl)-7-[(6-chloropyridin-3-yl)methyl]-7H-imidazo[2,1-b][1,3]thiazol-4-ium-6-olate], the pest or weed control at 20 ppm in data set [1] stood at 100%. In addition, the chromatographic logP in data set [2] and in data set [2] (pH 2.7) was 1.33 throughout.

In data set [1], `O=C(CCl)c1c([O-])n(Cc2cnc(Cl)s2)c2scc[n+]12` [Example I-5-002] came in with an efficacy of 100%. The “log p^a)” value in data set [2] (Table 3; HPLC reversed-phase C18, 43° C.; footnote a) acidic range pH 2.7) stood at 1.46.
